This is an account of results in PMC7738871, “Covalent modification of Keap1 at Cys77 and Cys434 by pubescenoside a suppresses oxidative stress-induced NLRP3 inflammasome activation in myocardial ischemia-reperfusion injury” (Theranostics, 2021).

Each structure is given as a SMILES string.

One experiment has as its target T1, Keap1 C38S (Homo sapiens, UniProt Q14145, C38S).
T1 construct: His (N); made in house; host or cells: E. coli BL21 (DE3)
As to the kind of experiment: ITC titration of PBA with Keap1-C38S. The class given is binding. To be noted: 25 ℃. How it is done:
The Keap1 was amplified by PCR using a human cDNA library, and was subcloned into the vector pET28-TEV, which contained one tobacco etch virus (TEV) protease cleavage site at the upstream multiple cloning site. The protein was expressed in E. coli BL21 (DE3) cells and incubated at 37 °C until the OD600 value reached 0.6, using 0.2 mM isopropyl β-D-1-thiogalactopyranoside (IPTG) overnight induction at 18 °C. The cells were isolated by centrifugation, resuspended in ice-cold lysis buffer and lysed by cryogenic overpressure cell breaker at 1,200 psi. The lysates were centrifuged for 60 min at 14,000 rpm to obtain the supernatant. Gravity flow purification of Keap1 protein was obtained at room temperature using 1 mL of Ni-NTA and eluted in buffer containing 250 mM imidazole, followed by 1 mL of HiTrap QHP for the second step purification. The final protein was purified and validated by Superdex 200 10/300GL resin.
The mutant plasmid DNA was obtained by PCR. The PCR products were cleaved by DpnI restriction enzymes. The restriction endonuclease-cleaved mixture was subsequently transformed into E. coli DH5α. Colonies were evaluated by colony PCR and sequenced. The mutant plasmid was transformed into E. coli BL21 (DE3) after successful sequencing. The steps for expression and purification of all recombinants were described above.
Isothermal calorimetry (ITC) titration experiments were performed at 25 °C. WT Keap1, Keap1 mutants and PBA were dissolved in binding buffer (40 mM Tris-HCl pH 8.0, 250 mM NaCl). In a typical experiment, 60 μL of PBA (1 mM) was injected 19 times at 2-min intervals from a stirring syringe into the sample cell containing 300 μL of WT protein or mutants (30 μM). The first injection was 0.4 μL of PBA, and the subsequent 18 injections were 2 μL each time. The site-binding models were determined by using MicroCal Origin software.
A general note: Isothermal titration calorimetry measures the heat released or taken up as one component is titrated into another.

The test system of experiment [1] is OGD/R-induced primary mouse cardiomyocytes. In words: OGD/R-induced injury, MTT viability, primary cardiomyocytes. The class given is cell-based. The conditions noted are these: 10 and 30 μM, OGD 3 h, reperfusion 18 h. As to the method: The heart was removed from the neonatal C57BL/6 mice and cut into 1 mm^3 pieces in ice […] buffer. The tissues were digested with the mixture of 0.125% trypsin (Gibco, 15090-046) and 0.1% type II collagenase (Gibco, 17101-015) 6 min at 37 °C for three times until the tissues were completely digested. The cells were harvested and seeded in a dish. After 90 min of incubation, the cell culture medium was collected and centrifuged. The centrifuged cardiomyocytes were harvested, seeded on 0.1 % gelatin-coated culture plates with DMEM containing 10% FBS and […] Brdu, and incubated in a 37°C incubator.
Cell viability was determined by MTT assays. PBA was prepared to a stock solution dissolved in dimethyl sulfoxide (DMSO). RAW264.7, H9c2 cells, primary mouse cardiomyocytes were treated with different doses of PBA, and DMSO only as control for 48 h for the toxicity. In addition, H9c2 cells or primary mouse cardiomyocytes were treated with the indicated doses of PBA, diazoxide as positive control, DMSO only as control, then cultured with or without OGD/R treatment. At the end of the experiments, MTT was added into each well at the concentration of 0.5 mg/ml, and incubated at 37 °C for 4 h. […] And the solution was measured at the absorbance of 490 nm by a spectrophotometer (Thermo Fisher Scientific, MA, USA). […]

In experiment [2] the test system is Nrf2-/- mice under AMI/R injury. As to the kind of experiment: LAD-induced AMI/R in Nrf2-/- mice. The class given is in vivo, mouse. How it is done: The experimental procedures and protocols were approved by the Committee on Ethical USE of Animals of International Institute for Translational Chinese Medicine, Guangzhou University of Chinese Medicine (No. IITCM-20180115). Adult male C57BL/6 mice were purchased from the Laboratory Animal Center, Sun Yat-Sen University (Guangzhou, Guangdong, China), and Nrf2 knockout mice were obtained from Riken. Adult male C57BL/6 or Nrf2 knockout mice were treated with 30 mg/kg PBA or an equal volume of vehicle 15 min prior to reperfusion. Mice were divided into 6 groups: (1) Wild-type sham (n = 10): C57BL/6 mice received vehicle, as the sham group; (2) Wild-type AMI/R group (n = 10): C57BL/6 mice received vehicle (i.p.) 15 min before reperfusion; (3) Wild-type AMI/R plus PBA group (n = 10): C57BL/6 mice received 30 mg/kg PBA (i.p.) 15 min before reperfusion; (4) Nrf2 knockout sham (n = 8) : Nrf2 knockout mice received vehicle (i.p.), as in the sham group; (5) Nrf2 knockout AMI/R group (n = 8): Nrf2 knockout mice received vehicle (i.p.) 15 min before reperfusion; (6) Nrf2 knockout AMI/R plus PBA group (n = 8): Nrf2 knockout mice received 30 mg/kg PBA (i.p.) 15 min before reperfusion. PBA was dissolved in 0.9% NaCl buffer containing 2% EtOH. The vehicle was 0.9% NaCl buffer containing 2% EtOH.
The C57BL/6 mice or Nrf2 knockout mice underwent myocardial ischemia-reperfusion injury as described previously. In brief, mice were anaesthetized by i.p. injection of sodium pentobarbital at a dose of 50 mg/kg and ventilated under a pressure-control VentStar R415 ventilator (RWD Life Science Inc., Shenzhen, China). Following thoracotomy between the 3rd and 4th intercostal spaces, the mouse heart was exposed. The LAD was ligated with an 8-0 silk suture and the PE10 tube for 30 min. PBA and vehicle were i.p. injected 15 min prior to reperfusion. After 30 min of ischemia, the suture with PE10 tube was removed. At the end of 24 h of reperfusion, the LAD was relegated, and 1% Evans blue dye was injected to measure the area at risk (AAR). The hearts of the mice were collected, and frozen at -80 °C for 10 min and cut into 5 slices. The slices were incubated with 1% 2,3,5-triphenyltetrazolium chloride (TTC, Santa Cruz, USA) at 37 °C for 15 min and fixed with 4% paraformaldehyde overnight. The slices were captured and the areas of AAR and IA were quantified by using ImageJ software.
Hemodynamic measurements were performed using a PV-loop catheter (Transonic Systems Inc., Ithaca, NY, USA). Hemodynamic measurements were analysed using Ponemah 7700 modules software according to a standardized protocol. The maximum rate of rise of left ventricular pressure increase (+dp/dtmax) and the maximum rate of rise of left ventricular pressure decrease (-dp/dtmax) were calculated for all mice.

T1 sequence (Q14145 whole entry C38S): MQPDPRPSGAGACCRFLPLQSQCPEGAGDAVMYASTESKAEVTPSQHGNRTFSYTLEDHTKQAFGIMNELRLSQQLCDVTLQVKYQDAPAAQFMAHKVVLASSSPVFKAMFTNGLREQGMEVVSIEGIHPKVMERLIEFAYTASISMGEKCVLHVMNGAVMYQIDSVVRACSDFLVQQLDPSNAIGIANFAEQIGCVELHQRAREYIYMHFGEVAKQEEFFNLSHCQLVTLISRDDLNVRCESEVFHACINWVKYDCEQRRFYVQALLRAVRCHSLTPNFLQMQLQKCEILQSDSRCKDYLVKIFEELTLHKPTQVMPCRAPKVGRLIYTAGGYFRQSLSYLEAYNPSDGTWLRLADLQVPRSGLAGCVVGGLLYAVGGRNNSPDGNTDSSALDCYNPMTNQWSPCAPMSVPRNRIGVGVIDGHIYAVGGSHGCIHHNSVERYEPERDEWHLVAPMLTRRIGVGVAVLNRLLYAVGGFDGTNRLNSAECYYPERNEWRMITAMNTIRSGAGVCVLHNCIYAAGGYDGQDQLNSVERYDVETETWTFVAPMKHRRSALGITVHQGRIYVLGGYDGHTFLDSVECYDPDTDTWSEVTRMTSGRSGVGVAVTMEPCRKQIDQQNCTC

Turning to `C=C(COC(=O)C=Cc1ccc(O)c(O)c1)C(O)COC1OC(CO)C(O)C(O)C1O` (stereo not drawn) [PBA, pubescenoside A], at Keap1 C38S, the Kd (usually the equilibrium constant for the complex coming apart) was determined as 8.59 µM, the “T△S” value worked out at 9.71 ± 0 kJ/mol and the “△H” value is -19.2 ± 0.833 kJ/mol. For the same compound, the “protection against OGD/R induced injury (cell viability, MTT)” value in experiment [1] is “protected”. Further, the “inflammatory cells infiltration and disturbed myofibrillar structure (H&E staining)” value in experiment [2] is “could not suppress”. Also, in experiment [2] (30 mg/kg i.p., AMI/R), the cardioprotective effect entry is “disappeared”; the “decrease effect of CK-MB level” value is reported as “blocked”; the “increase effect of -dp/dtmax and -dp/dtmax” value is given as “blocked”. Besides, in experiment [2] (WB analysis), the “suppressive effect on the NLRP3 inflammasome in heart tissue” value is recorded as “blocked”.
